Assay results reported in patent publication US11731986B2 (Sanford Burnham Prebys Medical Discovery Institute, priority 2017, dated 2023).

Molecular target: T1, human LMPTP-A (Homo sapiens, UniProt P24666)
T1 sequence (P24666 1-158): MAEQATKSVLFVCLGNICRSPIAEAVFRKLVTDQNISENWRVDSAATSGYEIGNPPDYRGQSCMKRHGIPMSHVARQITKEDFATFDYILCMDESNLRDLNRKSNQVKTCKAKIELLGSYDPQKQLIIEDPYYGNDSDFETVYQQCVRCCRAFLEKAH
Assay: Enzyme Assay of Inhibition of LMPTP-A (phosphatase assay, OMFP or pNPP substrate)
Format: biochemical
Settings: Bis-Tris pH 6.0, 37° C.
How it was run: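 Buffer 50 mM Bis-Tris pH 6.0, 1 mM DTT, 0.01% Triton X-100, 37 °C; OMFP read continuously (485/525 nm) or pNPP stopped with NaOH, 405 nm. IC50 from concentration vs % activity. Selectivity: 40 μM compound with 0.4 mM OMFP or 5 mM pNPP; reversibility: 50 nM enzyme, 10 μM compound, 5 min, 100× dilution.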

Row | IC50 [nM] | Structure (SMILES)
1 | ≤ 1000 | CCN(CC)C(=O)c1ccc(-c2cc(NCCCN3CCCCC3)c3cnccc3n2)c(C(F)(F)F)c1 [N,N-diethyl-4-(4-((3-(piperidin-1-yl)propyl)amino)-1,6-naphthyridin-2-yl)-3-(trifluoromethyl)benzamide]
2 | 1000 to 20000 | CCN(CC)C(=O)c1ccc(-c2cc(NC3CCNC3)c3cnccc3n2)cc1 (stereo not shown) [N,N-diethyl-4-(4-(pyrrolidin-3-ylamino)-1,6-naphthyridin-2-yl)benzamide]
3 | 1000 to 20000 | CCN(CC)C(=O)c1ccc(-c2cc(NC3CCOCC3)c3cnccc3n2)cc1 [N,N-diethyl-4-(4-(tetrahydro-2H-pyran-4-ylamino)-1,6-naphthyridin-2-yl)benzamide]
4 | 1000 to 20000 | CCN(CC)C(=O)c1nc2cc(-c3cc(NCCCN4CCCCC4)c4cnccc4n3)ccc2[nH]1 [N,N-diethyl-5-(4-((3-(piperidin-1-yl)propyl)amino)-1,6-naphthyridin-2-yl)-1H-benzo[d]imidazole-2-carboxamide]
5 | ≤ 1000 | CCN(CC)C(=O)c1cc2ccc(-c3cc(NCCCN4CCCCC4)c4cnccc4n3)cc2s1 [N,N-diethyl-6-(4-(3-(piperidin-1-yl)propylamino)-1,6-naphthyridin-2-yl)benzo[b]thiophene-2-carboxamide]
6 | ≤ 1000 | Cn1c(C(=O)NC2CCS(=O)(=O)CC2)cc2cc(-c3cc(NCCCN4CCCCC4)c4cnccc4n3)ccc21 [N-(1,1-dioxidotetrahydro-2H-thiopyran-4-yl)-1-methyl-5-(4-((3-(piperidin-1-yl)propyl)amino)-1,6-naphthyridin-2-yl)-1H-indole-2-carboxamide]
7 | ≤ 1000 | CN1CCC(NC(=O)CCc2ccc(-c3cc(NC4CCN(C)CC4)c4cnccc4n3)cc2)CC1 [N-(1-Methylpiperidin-4-yl)-3-(4-(4-(1-methylpiperidin-4-ylamino)-1,6-naphthyridin-2-yl)phenyl)propanamide]
8 | ≤ 1000 | CN1CCC(NC(=O)CCOCc2ccc(-c3cc(NCCCN4CCCCC4)c4cnccc4n3)cc2)CC1 [N-(1-Methylpiperidin-4-yl)-3-(4-(4-(3-(piperidin-1-yl)propylamino)-1,6-naphthyridin-2-yl)benzyloxy)propanamide]
9 | 1000 to 20000 | CN1CCC(NC(=O)c2ccc(-c3cc(NC4CCN(C)CC4)c4cnccc4n3)cc2)CC1 [N-(1-Methylpiperidin-4-yl)-4-(4-((1-methylpiperidin-4-yl)amino)-1,6-naphthyridin-2-yl)benzamide]
10 | 1000 to 20000 | CN1CCC(NC(=O)c2ccc(-c3cc(NC4CCN(C)C4)c4cnccc4n3)cc2)CC1 (stereo not shown) [N-(1-Methylpiperidin-4-yl)-4-(4-((1-methylpyrrolidin-3-yl)amino)-1,6-naphthyridin-2-yl)benzamide]
11 | ≤ 1000 | CN1CCC(NC(=O)c2ccc(-c3cc(NC4CCOCC4)c4cnccc4n3)cc2)CC1 [N-(1-Methylpiperidin-4-yl)-4-(4-((tetrahydro-2H-pyran-4-yl)amino)-1,6-naphthyridin-2-yl)benzamide]
12 | 1000 to 20000 | CN1CCC(NC(=O)c2ccc(-c3cc(NC4CCNCC4)c4cnccc4n3)cc2)CC1 [N-(1-Methylpiperidin-4-yl)-4-(4-(piperidin-4-ylamino)-1,6-naphthyridin-2-yl)benzamide]
13 | 1000 to 20000 | CN1CCC(NC(=O)c2ccc(-c3cc(NC4CCNC4)c4cnccc4n3)cc2)CC1 (stereo not shown) [N-(1-Methylpiperidin-4-yl)-4-(4-(pyrrolidin-3-ylamino)-1,6-naphthyridin-2-yl)benzamide]
14 | 1000 to 20000 | CN1CCC(NC(=O)c2cc3ccc(-c4cc(NCCCN5CCCCC5)c5cnccc5n4)cc3[nH]2)CC1 [N-(1-Methylpiperidin-4-yl)-6-(4-(3-(piperidin-1-yl)propylamino)-1,6-naphthyridin-2-yl)-1H-indole-2-carboxamide]
15 | ≤ 1000 | CN1CCC(NC(=O)c2nc3cc(-c4cc(NCCCN5CCCCC5)c5cnccc5n4)cnc3[nH]2)CC1 [N-(1-Methylpiperidin-4-yl)-6-(4-(3-(piperidin-1-yl)propylamino)-1,6-naphthyridin-2-yl)-3H-imidazo[4,5-b]pyridine-2-carboxamide]
16 | ≤ 1000 | CCN1CCC(NC(=O)c2cc3ccc(-c4cc(NCCCN5CCCCC5)c5cnccc5n4)cc3s2)CC1 [N-(1-ethylpiperidin-4-yl)-6-(4-(3-(piperidin-1-yl)propylamino)-1,6-naphthyridin-2-yl)benzo[b]thiophene-2-carboxamide]
17 | ≥ 20000 | CN1CCC(NC(=O)COc2ccc(-c3cc(NCCCN4CCCCC4)c4cnccc4n3)cc2)CC1 [N-(1-methylpiperidin-4-yl)-2-(4-(4-(3-(piperidin-1-yl)propylamino)-1,6-naphthyridin-2-yl)phenoxy)acetamide]

Row | IC50 [nM] | Structure (SMILES)
18 | ≤ 1000 | CN1CCC(NC(=O)COCc2ccc(-c3cc(NCCCN4CCCCC4)c4cnccc4n3)cc2)CC1 [N-(1-methylpiperidin-4-yl)-2-((4-(4-((3-(piperidin-1-yl)propyl)amino)-1,6-naphthyridin-2-yl)benzyl)oxy)acetamide]
19 | ≥ 20000 | CN1CCC(NC(=O)CCOc2ccc(-c3cc(NCCCN4CCCCC4)c4cnccc4n3)cc2)CC1 [N-(1-methylpiperidin-4-yl)-3-(4-(4-((3-(piperidin-1-yl)propyl)amino)-1,6-naphthyridin-2-yl)phenoxy)propanamide]
20 | 1000 to 20000 | CN1CCC(NC(=O)c2ccc(-c3cc(NCCCN4CCCCC4)c4cnccc4n3)cn2)CC1 [N-(1-methylpiperidin-4-yl)-5-(4-((3-(piperidin-1-yl)propyl)amino)-1,6-naphthyridin-2-yl)picolinamide]
21 | ≤ 1000 | CN1CCC(NC(=O)c2cc3ccc(-c4cc(NCCCN5CCCCC5)c5cnccc5n4)cc3s2)CC1 [N-(1-methylpiperidin-4-yl)-6-(4-(3-(piperidin-1-yl)propylamino)-1,6-naphthyridin-2-yl)benzo[b]thiophene-2-carboxamide]
22 | ≤ 1000 | CN1CCC(CCNC(=O)CCc2ccc(-c3cc(NCCCN4CCCCC4)c4cnccc4n3)cc2)CC1 [N-(2-(1-Methylpiperidin-4-yl)ethyl)-3-(4-(4-(3-(piperidin-1-yl)propylamino)-1,6-naphthyridin-2-yl)phenyl)propanamide]
23 | ≤ 1000 | CN1CCC(CCNC(=O)COCc2ccc(-c3cc(NCCCN4CCCCC4)c4cnccc4n3)cc2)CC1 [N-(2-(1-methylpiperidin-4-yl)ethyl)-2-(4-(4-(3-(piperidin-1-yl)propylamino)-1,6-naphthyridin-2-yl)benzyloxy)acetamide]
24 | 1000 to 20000 | CN1CCC(CCNC(=O)C#Cc2ccc(-c3cc(NCCCN4CCCCC4)c4cnccc4n3)cc2)CC1 [N-(2-(1-methylpiperidin-4-yl)ethyl)-3-(4-(4-((3-(piperidin-1-yl)propyl)amino)-1,6-naphthyridin-2-yl)phenyl)propiolamide]
25 | ≤ 1000 | CN1CCCN(CCNC(=O)CCc2ccc(-c3cc(NCCCN4CCCCC4)c4cnccc4n3)cc2)CC1 [N-(2-(4-Methyl-1,4-diazepan-1-yl)ethyl)-3-(4-(4-(3-(piperidin-1-yl)propylamino)-1,6-naphthyridin-2-yl)phenyl)propanamide]
26 | ≤ 1000 | CN1CCCN(CCNC(=O)COCc2ccc(-c3cc(NCCCN4CCCCC4)c4cnccc4n3)cc2)CC1 [N-(2-(4-methyl-1,4-diazepan-1-yl)ethyl)-2-(4-(4-(3-(piperidin-1-yl)propylamino)-1,6-naphthyridin-2-yl)benzyloxy)acetamide]
27 | 1000 to 20000 | CN(C)CCNC(=O)c1cc2ccc(-c3cc(NCCCN4CCCCC4)c4cnccc4n3)cc2[nH]1 [N-(2-(Dimethylamino)ethyl)-6-(4-(3-(piperidin-1-yl)propylamino)-1,6-naphthyridin-2-yl)-1H-indole-2-carboxamide]
28 | ≤ 1000 | CN(C)CCNC(=O)c1cc2cc(-c3cc(NCCCN4CCCCC4)c4cnccc4n3)ccc2n1C [N-(2-(dimethylamino)ethyl)-1-methyl-5-(4-((3-(piperidin-1-yl)propyl)amino)-1,6-naphthyridin-2-yl)-1H-indole-2-carboxamide]
29 | ≤ 1000 | CN(C)CCNC(=O)c1ccc(-c2cc(NCCCN3CCCCC3)c3cnccc3n2)cc1 [N-(2-(dimethylamino)ethyl)-4-(4-((3-(piperidin-1-yl)propyl)amino)-1,6-naphthyridin-2-yl)benzamide]
30 | ≤ 1000 | CN(C)CCNC(=O)c1nc2cc(-c3cc(NCCCN4CCCCC4)c4cnccc4n3)ccc2[nH]1 [N-(2-(dimethylamino)ethyl)-5-(4-(3-(piperidin-1-yl)propylamino)-1,6-naphthyridin-2-yl)-1H-benzo[d]imidazole-2-carboxamide]
31 | ≤ 1000 | CN(C)CCNC(=O)c1nc2cc(-c3cc(Nc4ccc(CN5CCCC5)cc4)c4cnccc4n3)ccc2[nH]1 [N-(2-(dimethylamino)ethyl)-5-(4-((4-(pyrrolidin-1-ylmethyl)phenyl)amino)-1,6-naphthyridin-2-yl)-1H-benzo[d]imidazole-2-carboxamide]
32 | 1000 to 20000 | CN(C)CCNC(=O)c1cc2ccc(-c3cc(NCCCN4CCCCC4)c4cnccc4n3)cc2s1 [N-(2-(dimethylamino)ethyl)-6-(4-(3-(piperidin-1-yl)propylamino)-1,6-naphthyridin-2-yl)benzo[b]thiophene-2-carboxamide]
33 | ≤ 1000 | CN1CCN(CCCNC(=O)c2nc3cc(-c4cc(NCCCN5CCCCC5)c5cnccc5n4)ccc3[nH]2)CC1 [N-(3-(4-methylpiperazin-1-yl)propyl)-5-(4-((3-(piperidin-1-yl)propyl)amino)-1,6-naphthyridin-2-yl)-1H-benzo[d]imidazole-2-carboxamide]
34 | ≥ 20000 | CN1CCN(CCCNC(=O)c2nc3cc(-c4cc(Nc5ccc(CN6CCCC6)cc5)c5cnccc5n4)ccc3[nH]2)CC1 [N-(3-(4-methylpiperazin-1-yl)propyl)-5-(4-((4-(pyrrolidin-1-ylmethyl)phenyl)amino)-1,6-naphthyridin-2-yl)-1H-benzo[d]imidazole-2-carboxamide]
